From PubChem BioAssay AID248 (DTP/NCI, 2004)
Several values for one entry are separate records, joined by “and”; a condition that tells them apart may be missing. Identical values can stand only once. Toxic doses and inconclusive results are not listed. Cut-off read from the data, not from the text of the source: active = T/C of 150% or more; inactive = T/C below 125%.

Test system: L1210 leukemia ip in BDF1 mice, survival T/C
Assay: NCI In Vivo Anticancer Drug Screen. Data for tumor model L1210 Leukemia (intraperitoneal) in B6D2F1 (BDF1) mice
Conditions: endpoint: mean survival time, higher = longer survival
Summary of the method: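 Tumor was transplanted into mice, which were then dosed with test compound or vehicle alone. Survival was recorded for each group, and the treated figure was expressed relative to the control figure.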

[1] = dose: 100.0 mg/kg/injection, schedule: Q01DX001 (ip), vehicle: saline with Tween-80
[2] = dose: 50.0 mg/kg/injection, schedule: Q01DX001 (ip), vehicle: saline
[3] = dose: 100.0 mg/kg/injection, schedule: Q01DX001 (ip), vehicle: saline
[4] = dose: 200.0 mg/kg/injection, schedule: Q01DX001 (ip), vehicle: saline
[5] = dose: 400.0 mg/kg/injection, schedule: Q01DX001 (ip), vehicle: saline
[6] = dose: 100.0 mg/kg/injection, schedule: Q04DX003 (ip), vehicle: saline
[7] = dose: 400.0 mg/kg/injection, schedule: Q04DX003 (ip), vehicle: saline
[8] = dose: 100.0 mg/kg/injection, schedule: Q04DX003 (ip), vehicle: saline with Tween-80
[9] = dose: 200.0 mg/kg/injection, schedule: Q04DX003 (ip), vehicle: saline with Tween-80

Measured: T/C

CCOC(=O)NC(=S)Nc1ccccc1NC(=S)NC(=O)OCC
inactive: dose: 100.0 mg/kg/injection, schedule: Q04DX003 (ip), vehicle: gum acacia 97 % of control | dose: 200.0 mg/kg/injection, schedule: Q04DX003 (ip), vehicle: gum acacia 97 % of control | dose: 400.0 mg/kg/injection, schedule: Q04DX003 (ip), vehicle: gum acacia 94 % of control

Nc1ncnc(N)c1NC(=O)c1ccc(Cl)cc1
inactive: dose: 25.0 mg/kg/injection, schedule: Q01DX001 (ip), vehicle: saline with Tween-80 107 % of control | dose: 50.0 mg/kg/injection, schedule: Q01DX001 (ip), vehicle: saline with Tween-80 104 % of control | [1] 120 % of control

Cn1cc(N)c(=O)[nH]c1=O
inactive: [2] 101 % of control | [3] 101 % of control | [4] 101 % of control | [5] 103 % of control

O=C(/C=C/c1ccc(Cl)c(Cl)c1)c1ccccc1[N+](=O)[O-]
inactive: dose: 100.0 mg/kg/injection, schedule: Q01DX009 (ip), vehicle: Klucel (hydroxypropylcellulose) (HPC) 103 % of control | dose: 200.0 mg/kg/injection, schedule: Q01DX009 (ip), vehicle: Klucel (hydroxypropylcellulose) (HPC) 97 % of control | dose: 400.0 mg/kg/injection, schedule: Q01DX009 (ip), vehicle: Klucel (hydroxypropylcellulose) (HPC) 92 % of control

NC(N)=NCCN1C(c2ccccc2)C1c1ccccc1 (configuration not stated)
inactive: dose: 12.5 mg/kg/injection, schedule: Q04DX002 (ip), vehicle: saline with Tween-80 107 % of control | dose: 25.0 mg/kg/injection, schedule: Q04DX002 (ip), vehicle: saline with Tween-80 103 % of control | dose: 50.0 mg/kg/injection, schedule: Q04DX002 (ip), vehicle: saline with Tween-80 100 % of control

COC(=O)NS(=O)(=O)c1cccs1
inactive: dose: 100.0 mg/kg/injection, schedule: Q04DX002 (ip), vehicle: other 98 % of control | dose: 200.0 mg/kg/injection, schedule: Q04DX002 (ip), vehicle: other 94 % of control | dose: 400.0 mg/kg/injection, schedule: Q04DX002 (ip), vehicle: other 102 % of control

Cc1nc(N)[nH]c(=O)c1CCC(=O)O
inactive: [6] 102 % of control | [7] 107 % of control

CCCCCCCCCCCCOc1ccccc1C(=O)O
inactive: dose: 100.0 mg/kg/injection, schedule: Q01DX009 (ip), vehicle: saline sonified 98 % of control | dose: 100.0 mg/kg/injection, schedule: Q04DX003 (ip), vehicle: Klucel (hydroxypropylcellulose) (HPC) 97 % of control | dose: 200.0 mg/kg/injection, schedule: Q01DX009 (ip), vehicle: saline sonified 116 % of control | dose: 200.0 mg/kg/injection, schedule: Q04DX003 (ip), vehicle: Klucel (hydroxypropylcellulose) (HPC) 89 % of control | dose: 400.0 mg/kg/injection, schedule: Q01DX009 (ip), vehicle: saline sonified 108 % of control | dose: 400.0 mg/kg/injection, schedule: Q04DX003 (ip), vehicle: Klucel (hydroxypropylcellulose) (HPC) 99 % of control

O=[N+]([O-])c1ccc(N=C=C(c2ccccc2)c2ccccc2)cc1
inactive: dose: 100.0 mg/kg/injection, schedule: Q04DX002 (ip), vehicle: DMSO 112 % of control | dose: 200.0 mg/kg/injection, schedule: Q04DX002 (ip), vehicle: DMSO 91 % of control | dose: 400.0 mg/kg/injection, schedule: Q04DX002 (ip), vehicle: DMSO 94 % of control

Cc1cc(N(CCCl)CCCl)ccc1C=Nc1ccc(S(N)(=O)=O)cc1
inactive: dose: 50.0 mg/kg/injection, schedule: Q01DX001 (ip), vehicle: carboxymethylcellulose (CMC) 95 % of control | dose: 100.0 mg/kg/injection, schedule: Q01DX001 (ip), vehicle: carboxymethylcellulose (CMC) 104 % of control | dose: 200.0 mg/kg/injection, schedule: Q01DX001 (ip), vehicle: carboxymethylcellulose (CMC) 101 % of control | dose: 400.0 mg/kg/injection, schedule: Q01DX001 (ip), vehicle: carboxymethylcellulose (CMC) 104 % of control

CC(C)(c1cccs1)c1cscc1C(=O)O
inactive: [6] 108 % of control | dose: 200.0 mg/kg/injection, schedule: Q04DX003 (ip), vehicle: saline 113 % of control | [7] 105 % of control

O=C1CCc2cccc(O)c2N1
inactive: [3] 103 % of control | [4] 103 % of control

Cc1ccc(NC(=O)Nc2cccc3ccccc23)cc1
inactive: dose: 12.0 mg/kg/injection, schedule: Q01DX009 (ip), vehicle: gum acacia 108 % of control | dose: 12.5 mg/kg/injection, schedule: Q04DX003 (ip), vehicle: gum acacia 91 % of control | dose: 25.0 mg/kg/injection, schedule: Q01DX009 (ip), vehicle: gum acacia 103 % of control | dose: 25.0 mg/kg/injection, schedule: Q04DX003 (ip), vehicle: gum acacia 93 % of control | dose: 50.0 mg/kg/injection, schedule: Q01DX009 (ip), vehicle: gum acacia 94 % of control | dose: 50.0 mg/kg/injection, schedule: Q04DX003 (ip), vehicle: gum acacia 98 % of control

Cc1ccc(NC(=S)Nc2ccccc2F)cc1
inactive: [1] 94 % of control and 100 % of control | dose: 100.0 mg/kg/injection, schedule: Q04DX002 (ip), vehicle: saline with Tween-80 100 % of control and 104 % of control | dose: 200.0 mg/kg/injection, schedule: Q01DX001 (ip), vehicle: saline with Tween-80 98 % of control and 100 % of control | dose: 200.0 mg/kg/injection, schedule: Q04DX002 (ip), vehicle: saline with Tween-80 95 % of control | dose: 400.0 mg/kg/injection, schedule: Q01DX001 (ip), vehicle: saline with Tween-80 96 % of control and 103 % of control | dose: 400.0 mg/kg/injection, schedule: Q04DX002 (ip), vehicle: saline with Tween-80 92 % of control and 104 % of control

OC1COC(Cl)C(O)C1O (configuration not stated)
inactive: dose: 25.0 mg/kg/injection, schedule: Q01DX009 (ip), vehicle: saline with Tween-80 96 % of control | dose: 50.0 mg/kg/injection, schedule: Q01DX009 (ip), vehicle: saline with Tween-80 97 % of control | dose: 100.0 mg/kg/injection, schedule: Q01DX009 (ip), vehicle: saline with Tween-80 94 % of control | [8] 91 % of control | [9] 88 % of control

O=[N+]([O-])c1ccc2scnc2c1
inactive: dose: 100.0 mg/kg/injection, schedule: Q01DX001 (ip), vehicle: acetone 98 % of control | dose: 100.0 mg/kg/injection, schedule: Q04DX003 (ip), vehicle: acetone 107 % of control | dose: 200.0 mg/kg/injection, schedule: Q01DX001 (ip), vehicle: acetone 92 % of control | dose: 200.0 mg/kg/injection, schedule: Q04DX003 (ip), vehicle: acetone 89 % of control | dose: 400.0 mg/kg/injection, schedule: Q01DX001 (ip), vehicle: acetone 95 % of control | dose: 400.0 mg/kg/injection, schedule: Q04DX003 (ip), vehicle: acetone 96 % of control

CC(=O)OC1CCC2(C)C(=CCC3C2CCC2(C)C(C(C)N)CCC32)C1 (configuration not stated)
inactive: dose: 100.0 mg/kg/injection, schedule: Q01DX001 (sc), vehicle: steriod suspending solution 90 % of control | dose: 400.0 mg/kg/injection, schedule: Q01DX001 (sc), vehicle: steriod suspending solution 90 % of control

O=C1c2ccccc2C(=O)C2C1C(c1ccccc1)N(c1ccccc1)C2c1ccccc1 (configuration not stated)
inactive: [2] 94 % of control | [3] 105 % of control | [4] 94 % of control | [5] 103 % of control

Cc1cc(=O)[nH]c(N2C(=O)c3ccccc3C2=O)n1
inactive: dose: 25.0 mg/kg/injection, schedule: Q04DX003 (ip), vehicle: Klucel (hydroxypropylcellulose) (HPC) 99 % of control | dose: 50.0 mg/kg/injection, schedule: Q04DX003 (ip), vehicle: Klucel (hydroxypropylcellulose) (HPC) 102 % of control

O=C(O)/C=C/C1CCCCC1
inactive: dose: 75.0 mg/kg/injection, schedule: Q01DX001 (ip), vehicle: saline 97 % of control | dose: 150.0 mg/kg/injection, schedule: Q01DX001 (ip), vehicle: saline 95 % of control | dose: 300.0 mg/kg/injection, schedule: Q01DX001 (ip), vehicle: saline 95 % of control

Cn1ccc2cc(Br)ccc21
inactive: [8] 102 % of control | [9] 101 % of control | dose: 400.0 mg/kg/injection, schedule: Q04DX003 (ip), vehicle: saline with Tween-80 101 % of control

COC(=O)C1Cc2c([nH]c3ccccc23)CN1 (configuration not stated)
inactive: dose: 9.0 mg/kg/injection, schedule: Q01DX009 (ip), vehicle: saline 95 % of control | dose: 9.0 mg/kg/injection, schedule: Q04DX003 (ip), vehicle: saline 100 % of control | dose: 18.0 mg/kg/injection, schedule: Q01DX009 (ip), vehicle: saline 101 % of control | dose: 18.0 mg/kg/injection, schedule: Q04DX003 (ip), vehicle: saline 98 % of control | dose: 37.0 mg/kg/injection, schedule: Q01DX009 (ip), vehicle: saline 105 % of control | dose: 37.0 mg/kg/injection, schedule: Q04DX003 (ip), vehicle: saline 93 % of control
